In US7183301B2, “Heterocyclic compounds having antibacterial activity: process for their preparation and pharmaceutical compositions containing them” (Dr. Reddy's Research Foundation, priority 2000, dated 2007):
≈ marks a conversion by molar mass, not a printed value.

How the values were obtained:
[1] = test system: Staphylococcus aureus ATCC 33591 (DRCC 019, MRSA); experiment: MIC by broth microdilution, S. aureus DRCC 019 (MRSA); format: cell-based; conditions: Mueller Hinton Broth, overnight 37° C., strain DRCC 019 (ATCC 33591), read-out: Antimicrobial Screening (MIC) Staphylococcus aureus 019 MRSA
Protocol: (§1) Minimum Inhibiton Concentrations (MICs) were determined by broth microdilution technique as per the guidelines prescribed om the fifth edition of Approved Standards, NCCLS document M7-A5 Vol 20-No 2, 2000 Villinova, Pa.
(§2) Initial stock solution of the test compound was prepared in DMSO. Subsequent two fold dilutions were carried out in sterile Mueller Hinton Broth (Difco) (MHB).
(§3) Frozen cultures stocks were inoculated into 50 ml sterile MHB in 250 ml Erlyn Meyer flasks.
(§4) Composition of MHB is as follows:
(§5) Flasks were incubated for 4 to 5 h at 35° C. on a rotary shaker at 150 rpm. Inoculum was prepared by diluting the culture in sterile MHB to obtain a turbidity of 0.5 McFarland standard. This corresponds to 1–2×10^8 CFU/ml. The stock was further diluted in sterile broth to obtain 1–2×10^6 CFU/ml. 50 μl of the above diluted inoculum was added from 1–10 wells. The plates were incubated overnight at 37° C.

[2] = test system: Enterococcus faecium NCTC 12202 (DRCC 154, R); experiment: MIC by broth microdilution, Enterococcus DRCC 154 (R); format: cell-based; conditions: NCTC12202, Mueller Hinton Broth, overnight 37° C., strain DRCC 154 (E. faecium NCTC 12202), read-out: Antimicrobial Screening (MIC) Enterococcus sp 154 R
Protocol: as §1, §2, §3, §4, §5

[3] = test system: Staphylococcus aureus ATCC 29213 (DRCC 035, S); experiment: MIC by broth microdilution, S. aureus DRCC 035 (S); format: cell-based; conditions: ATCC29213, Mueller Hinton Broth, overnight 37° C., strain DRCC 035 (ATCC 29213), read-out: Antimicrobial Screening (MIC) Staphylococcus aureus 035 S
Protocol: as §1, §2, §3, §4, §5

[4] = test system: Enterococcus faecalis NCTC 12201 (DRCC 153, R); experiment: MIC by broth microdilution, Enterococcus DRCC 153 (R); format: cell-based; conditions: NCTC12201, Mueller Hinton Broth, overnight 37° C., strain DRCC 153 (E. faecalis NCTC 12201), read-out: Antimicrobial Screening (MIC) Enterococcus sp 153 R
Protocol: as §1, §2, §3, §4, §5

[5] = test system: Escherichia coli ATCC 25922 (DRCC 018, S); experiment: MIC by broth microdilution, E coli DRCC 018 (S); format: cell-based; conditions: ATCC25922, Mueller Hinton Broth, overnight 37° C., strain DRCC 018 (ATCC 25922), read-out: Antimicrobial Screening (MIC) E coli 18 S
Protocol: as §1, §2, §3, §4, §5

[6] = test system: Staphylococcus aureus ATCC 49951 (DRCC 213, Smith S); experiment: MIC by broth microdilution, S. aureus DRCC 213 (Smith S); format: cell-based; conditions: ATCC49951, Mueller Hinton Broth, overnight 37° C., strain DRCC 213 (ATCC 49951), read-out: Antimicrobial Screening (MIC) Staphylococcus aureus 213 Smith S
Protocol: as §1, §2, §3, §4, §5

[7] = test system: Enterococcus faecalis ATCC 29212 (DRCC 034, S); experiment: MIC by broth microdilution, Enterococcus DRCC 034 (S); format: cell-based; conditions: ATCC29212, Mueller Hinton Broth, overnight 37° C., strain DRCC 034 (E. faecalis ATCC 29212), read-out: Antimicrobial Screening (MIC) Enterococcus sp 034 S
Protocol: as §1, §2, §3, §4, §5

Row | Structure (SMILES) | MIC [1] [µg/mL] | MIC [2] [µg/mL] | MIC [3] [µg/mL] | MIC [4] [µg/mL] | MIC [5] [µg/mL] | MIC [6] [µg/mL] | melting point [°C] | MIC [7] [µg/mL]
1 | CC(=O)NC[C@H]1CN(c2ccc(N3CCOC3=O)cc2)C(=O)O1 [Example 62] | 2 (≈ 6.26 µM) | 8 (≈ 25.1 µM) | 4 (≈ 12.5 µM) | 8 (≈ 25.1 µM) | 32 (≈ 100 µM) | 1 (≈ 3.13 µM) | – | –
2 | COC(=S)NC[C@H]1CN(c2ccc(N3CCN(Cc4ccccc4)C3=O)c(F)c2)C(=O)O1 [Example 116] | – | – | – | – | – | – | 174 | –
3 | CC(=S)NC[C@H]1CN(c2cc(F)c(N3CCOC3=O)c(F)c2)C(=O)O1 [Example 77] | – | – | – | – | – | – | 168 | –
4 | COC(=S)NC[C@H]1CN(c2ccc(N3CC(=O)N(Cc4ccccc4)C3)c(F)c2)C(=O)O1 [Example 123] | – | – | – | – | – | – | 192 | –
5 | COC(=S)NC[C@H]1CN(c2ccc(N3CCN(Cc4ccccc4)C3=O)cc2)C(=O)O1 [Example 115] | – | – | – | – | – | – | 160 | –
6 | COC(=S)NC[C@H]1CN(c2ccc(N3CC(=O)N(C)C3)c(F)c2)C(=O)O1 [Example 110] | 0.5 (≈ 1.31 µM) | 1 (≈ 2.61 µM) | 0.5 (≈ 1.31 µM) | 1 (≈ 2.61 µM) | 32 (≈ 83.7 µM) | 0.5 (≈ 1.31 µM) | – | 1 (≈ 2.61 µM)
7 | COC(=S)NC[C@H]1CN(c2ccc(N3CCN(c4ccccc4)C3=O)c(F)c2)C(=O)O1 [Example 117] | – | – | – | – | – | – | 195 | –
8 | CC(=O)NC[C@H]1CN(c2ccc(N3CCOC3=O)c(F)c2)C(=O)O1 [Example 40] | 8 (≈ 23.7 µM) | 8 (≈ 23.7 µM) | 8 (≈ 23.7 µM) | 8 (≈ 23.7 µM) | 32 (≈ 94.9 µM) | 4 (≈ 11.9 µM) | – | 16 (≈ 47.4 µM)
9 | COC(=S)NC[C@H]1CN(c2ccc(N3CCN(C)C3=O)c(F)c2)C(=O)O1 [Example 113] | 2 (≈ 5.23 µM) | 8 (≈ 20.9 µM) | 4 (≈ 10.5 µM) | 4 (≈ 10.5 µM) | 32 (≈ 83.7 µM) | 4 (≈ 10.5 µM) | – | 4 (≈ 10.5 µM)
10 | CC(=S)NC[C@H]1CN(c2ccc(N3CCN(C)C3=O)c(F)c2)C(=O)O1 [Example 79] | 2 (≈ 5.46 µM) | 8 (≈ 21.8 µM) | 4 (≈ 10.9 µM) | 8 (≈ 21.8 µM) | 32 (≈ 87.3 µM) | 2 (≈ 5.46 µM) | – | 4 (≈ 10.9 µM)
11 | COC(=S)NC[C@H]1CN(c2cc(F)c(N3CCOC3=O)c(F)c2)C(=O)O1 [Example 99] | 2 (≈ 5.16 µM) | 2 (≈ 5.16 µM) | 2 (≈ 5.16 µM) | 2 (≈ 5.16 µM) | > 32 | 2 (≈ 5.16 µM) | – | 2 (≈ 5.16 µM)
12 | CCOC(=S)NC[C@H]1CN(c2ccc(N3CCOC3=O)c(F)c2)C(=O)O1 [Example 89] | 4 (≈ 10.4 µM) | 8 (≈ 20.9 µM) | 4 (≈ 10.4 µM) | 8 (≈ 20.9 µM) | > 32 | 4 (≈ 10.4 µM) | – | 8 (≈ 20.9 µM)
13 | COC(=S)NC[C@H]1CN(c2ccc(N3CCOC3=S)c(F)c2)C(=O)O1 [Example 92] | – | – | – | – | – | – | 197 | –
14 | COC(=S)NC[C@H]1CN(c2ccc(N3CCOC3=O)c(F)c2)C(=O)O1 [Example 88] | 1 (≈ 2.71 µM) | 2 (≈ 5.41 µM) | 2 (≈ 5.41 µM) | 2 (≈ 5.41 µM) | > 32 | 1 (≈ 2.71 µM) | – | 2 (≈ 5.41 µM)
15 | CC(=S)NC[C@H]1CN(c2cc(F)c(N3CCOC3=O)c(F)c2)C(=O)O1 [Example 76] | 2 (≈ 5.39 µM) | 4 (≈ 10.8 µM) | 4 (≈ 10.8 µM) | 4 (≈ 10.8 µM) | > 32 | 2 (≈ 5.39 µM) | – | 4 (≈ 10.8 µM)
16 | COC(=S)NC[C@H]1CN(c2ccc(N3CC(=S)N(C)C3)c(F)c2)C(=O)O1 [Example 126] | – | – | – | – | – | – | 223 | –
17 | CC(C)OC(=S)NC[C@H]1CN(c2ccc(N3CCOC3=O)cc2)C(=O)O1 [Example 107] | 2 (≈ 5.27 µM) | 4 (≈ 10.5 µM) | 4 (≈ 10.5 µM) | 4 (≈ 10.5 µM) | 32 (≈ 84.3 µM) | 4 (≈ 10.5 µM) | – | 8 (≈ 21.1 µM)
18 | COC(=S)NC[C@H]1CN(c2ccc(N3CC(=O)N(CO)C3)c(F)c2)C(=O)O1 [Example 124] | 0.25 (≈ 0.627 µM) | 0.5 (≈ 1.25 µM) | 0.5 (≈ 1.25 µM) | 0.25 (≈ 0.627 µM) | – | 0.25 (≈ 0.627 µM) | – | 0.5 (≈ 1.25 µM)
19 | COC(=S)NC[C@H]1CN(c2ccc(N3CC(=S)N(C)C3)c(F)c2)C(=O)O1 [Example 125] | 0.25 (≈ 0.627 µM) | 0.5 (≈ 1.25 µM) | 0.5 (≈ 1.25 µM) | 0.25 (≈ 0.627 µM) | – | 0.25 (≈ 0.627 µM) | – | 0.5 (≈ 1.25 µM)
20 | COCN1CN(c2ccc(N3C[C@H](CNC(=S)OC)OC3=O)cc2F)CC1=O [Example 127] | 0.5 (≈ 1.21 µM) | 1 (≈ 2.42 µM) | 1 (≈ 2.42 µM) | 1 (≈ 2.42 µM) | – | 1 (≈ 2.42 µM) | – | 1 (≈ 2.42 µM)
21 | COC(=S)NC[C@H]1CN(c2ccc(N3CCOC3=O)cc2)C(=O)O1 [Example 100] | 0.5 (≈ 1.42 µM) | 1 (≈ 2.85 µM) | 0.5 (≈ 1.42 µM) | 1 (≈ 2.85 µM) | 32 (≈ 91.1 µM) | 0.5 (≈ 1.42 µM) | – | 1 (≈ 2.85 µM)
